From paper PMC11167047 (Cell Death Discovery, 2024)

Legend:
Test in all cases: kinome screen (33PanQinase)
Format in all cases: biochemical
[1] = target: T1, MEKK3 (Homo sapiens, UniProt Q99759)
T1 construct: purchased Reaction Biology Europe GmbH (formerly ProQinase)
T1 sequence (Q99759 1-626): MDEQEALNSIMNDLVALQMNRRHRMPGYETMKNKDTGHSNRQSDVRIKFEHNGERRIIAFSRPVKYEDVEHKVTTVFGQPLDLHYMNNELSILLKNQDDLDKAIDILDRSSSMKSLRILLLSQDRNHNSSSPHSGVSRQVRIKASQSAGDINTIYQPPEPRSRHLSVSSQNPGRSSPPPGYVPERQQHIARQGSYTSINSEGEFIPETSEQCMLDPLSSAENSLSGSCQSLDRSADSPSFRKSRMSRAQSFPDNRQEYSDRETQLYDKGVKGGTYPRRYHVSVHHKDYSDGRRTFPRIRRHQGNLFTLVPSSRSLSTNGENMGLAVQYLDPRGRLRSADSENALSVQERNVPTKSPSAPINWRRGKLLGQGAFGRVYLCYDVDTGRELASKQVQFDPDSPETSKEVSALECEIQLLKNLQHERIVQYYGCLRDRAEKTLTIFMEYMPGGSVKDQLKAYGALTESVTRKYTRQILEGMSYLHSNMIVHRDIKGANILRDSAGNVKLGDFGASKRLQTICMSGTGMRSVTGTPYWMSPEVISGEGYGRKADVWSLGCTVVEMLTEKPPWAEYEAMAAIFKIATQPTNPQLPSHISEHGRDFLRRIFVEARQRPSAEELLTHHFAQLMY
Description: (§1) The Kinome Screening was performed by Reaction Biology Europe GmbH (http://reactionbiology.com; Freiburg i. Br., Germany).

[2] = target: T2, ASK1 (Homo sapiens, UniProt Q99683)
T2 construct: purchased Reaction Biology Europe GmbH (formerly ProQinase)
T2 sequence (Q99683 1-1374): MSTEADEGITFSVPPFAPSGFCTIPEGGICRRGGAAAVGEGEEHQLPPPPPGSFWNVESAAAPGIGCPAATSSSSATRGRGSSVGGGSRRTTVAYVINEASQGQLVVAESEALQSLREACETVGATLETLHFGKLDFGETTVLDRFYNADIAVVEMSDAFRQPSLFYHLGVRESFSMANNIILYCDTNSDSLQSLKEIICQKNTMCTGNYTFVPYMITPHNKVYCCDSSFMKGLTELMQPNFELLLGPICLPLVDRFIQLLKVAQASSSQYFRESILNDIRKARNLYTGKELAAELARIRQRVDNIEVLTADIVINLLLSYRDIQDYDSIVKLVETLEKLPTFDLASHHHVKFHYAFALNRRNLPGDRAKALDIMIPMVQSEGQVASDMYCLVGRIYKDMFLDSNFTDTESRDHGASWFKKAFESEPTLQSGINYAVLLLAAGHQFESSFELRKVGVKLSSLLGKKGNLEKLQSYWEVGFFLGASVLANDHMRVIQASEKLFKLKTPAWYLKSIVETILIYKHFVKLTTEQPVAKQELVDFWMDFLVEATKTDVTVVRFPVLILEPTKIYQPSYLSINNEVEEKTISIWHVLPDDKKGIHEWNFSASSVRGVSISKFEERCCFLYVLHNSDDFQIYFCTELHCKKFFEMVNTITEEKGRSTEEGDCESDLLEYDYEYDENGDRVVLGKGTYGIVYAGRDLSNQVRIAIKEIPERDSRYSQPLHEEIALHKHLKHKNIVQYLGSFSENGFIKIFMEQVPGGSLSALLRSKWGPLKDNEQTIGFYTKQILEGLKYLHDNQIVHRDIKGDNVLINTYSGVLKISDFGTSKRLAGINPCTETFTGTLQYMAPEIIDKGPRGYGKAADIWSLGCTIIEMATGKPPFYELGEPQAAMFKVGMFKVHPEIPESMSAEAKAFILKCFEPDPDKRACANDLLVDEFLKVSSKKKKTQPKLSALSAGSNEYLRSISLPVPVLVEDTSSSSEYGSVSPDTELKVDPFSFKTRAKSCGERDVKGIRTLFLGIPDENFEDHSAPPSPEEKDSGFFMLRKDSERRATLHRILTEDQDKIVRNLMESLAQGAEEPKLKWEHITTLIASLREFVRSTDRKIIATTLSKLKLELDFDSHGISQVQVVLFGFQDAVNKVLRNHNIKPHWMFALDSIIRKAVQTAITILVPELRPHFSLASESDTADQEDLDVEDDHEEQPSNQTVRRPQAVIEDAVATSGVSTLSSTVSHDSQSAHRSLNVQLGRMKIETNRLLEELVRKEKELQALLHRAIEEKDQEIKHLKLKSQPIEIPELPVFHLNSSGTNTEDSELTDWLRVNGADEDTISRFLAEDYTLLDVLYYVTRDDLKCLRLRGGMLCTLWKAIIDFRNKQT
Description: as §1

[3] = target: T3, VEGFR2 (Homo sapiens, UniProt P35968)
T3 construct: purchased Reaction Biology Europe GmbH (formerly ProQinase)
T3 sequence (P35968 20-1356): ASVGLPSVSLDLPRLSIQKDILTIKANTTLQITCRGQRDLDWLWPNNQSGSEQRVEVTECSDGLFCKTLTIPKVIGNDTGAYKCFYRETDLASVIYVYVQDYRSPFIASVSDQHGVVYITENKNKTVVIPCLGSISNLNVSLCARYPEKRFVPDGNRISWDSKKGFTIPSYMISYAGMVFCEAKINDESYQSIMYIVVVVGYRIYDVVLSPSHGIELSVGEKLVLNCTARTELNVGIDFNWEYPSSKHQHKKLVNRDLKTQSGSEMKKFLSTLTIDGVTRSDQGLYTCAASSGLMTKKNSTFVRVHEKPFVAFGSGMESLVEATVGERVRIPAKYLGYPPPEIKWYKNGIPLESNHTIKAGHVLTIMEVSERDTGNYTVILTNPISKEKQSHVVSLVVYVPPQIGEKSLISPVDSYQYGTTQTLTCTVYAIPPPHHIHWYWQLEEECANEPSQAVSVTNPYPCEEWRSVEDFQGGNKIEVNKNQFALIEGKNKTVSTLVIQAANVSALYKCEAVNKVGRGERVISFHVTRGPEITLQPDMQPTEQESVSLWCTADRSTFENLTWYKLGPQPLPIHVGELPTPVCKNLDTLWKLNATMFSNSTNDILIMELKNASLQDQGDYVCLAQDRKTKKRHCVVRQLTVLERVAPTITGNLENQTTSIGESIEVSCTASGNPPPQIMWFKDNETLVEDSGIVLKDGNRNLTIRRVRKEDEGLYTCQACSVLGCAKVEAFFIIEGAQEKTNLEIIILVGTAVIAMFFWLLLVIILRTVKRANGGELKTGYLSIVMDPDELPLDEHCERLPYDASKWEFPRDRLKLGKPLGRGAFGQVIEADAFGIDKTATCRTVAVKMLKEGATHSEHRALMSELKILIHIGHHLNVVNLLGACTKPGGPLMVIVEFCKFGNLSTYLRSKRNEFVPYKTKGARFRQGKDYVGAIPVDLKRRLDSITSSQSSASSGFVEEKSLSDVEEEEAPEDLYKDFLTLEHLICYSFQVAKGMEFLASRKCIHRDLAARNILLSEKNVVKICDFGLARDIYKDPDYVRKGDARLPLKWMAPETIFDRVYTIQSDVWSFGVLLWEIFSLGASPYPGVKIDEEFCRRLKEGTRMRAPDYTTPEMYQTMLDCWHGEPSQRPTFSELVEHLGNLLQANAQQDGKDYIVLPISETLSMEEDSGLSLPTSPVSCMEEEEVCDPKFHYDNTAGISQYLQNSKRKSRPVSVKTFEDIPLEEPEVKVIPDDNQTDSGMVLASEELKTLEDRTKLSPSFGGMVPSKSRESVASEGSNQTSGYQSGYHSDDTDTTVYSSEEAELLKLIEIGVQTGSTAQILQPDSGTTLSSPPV
Description: as §1

[4] = target: T4, MAP3K9 (Homo sapiens, UniProt P80192)
T4 construct: purchased Reaction Biology Europe GmbH (formerly ProQinase)
T4 sequence (P80192 whole entry): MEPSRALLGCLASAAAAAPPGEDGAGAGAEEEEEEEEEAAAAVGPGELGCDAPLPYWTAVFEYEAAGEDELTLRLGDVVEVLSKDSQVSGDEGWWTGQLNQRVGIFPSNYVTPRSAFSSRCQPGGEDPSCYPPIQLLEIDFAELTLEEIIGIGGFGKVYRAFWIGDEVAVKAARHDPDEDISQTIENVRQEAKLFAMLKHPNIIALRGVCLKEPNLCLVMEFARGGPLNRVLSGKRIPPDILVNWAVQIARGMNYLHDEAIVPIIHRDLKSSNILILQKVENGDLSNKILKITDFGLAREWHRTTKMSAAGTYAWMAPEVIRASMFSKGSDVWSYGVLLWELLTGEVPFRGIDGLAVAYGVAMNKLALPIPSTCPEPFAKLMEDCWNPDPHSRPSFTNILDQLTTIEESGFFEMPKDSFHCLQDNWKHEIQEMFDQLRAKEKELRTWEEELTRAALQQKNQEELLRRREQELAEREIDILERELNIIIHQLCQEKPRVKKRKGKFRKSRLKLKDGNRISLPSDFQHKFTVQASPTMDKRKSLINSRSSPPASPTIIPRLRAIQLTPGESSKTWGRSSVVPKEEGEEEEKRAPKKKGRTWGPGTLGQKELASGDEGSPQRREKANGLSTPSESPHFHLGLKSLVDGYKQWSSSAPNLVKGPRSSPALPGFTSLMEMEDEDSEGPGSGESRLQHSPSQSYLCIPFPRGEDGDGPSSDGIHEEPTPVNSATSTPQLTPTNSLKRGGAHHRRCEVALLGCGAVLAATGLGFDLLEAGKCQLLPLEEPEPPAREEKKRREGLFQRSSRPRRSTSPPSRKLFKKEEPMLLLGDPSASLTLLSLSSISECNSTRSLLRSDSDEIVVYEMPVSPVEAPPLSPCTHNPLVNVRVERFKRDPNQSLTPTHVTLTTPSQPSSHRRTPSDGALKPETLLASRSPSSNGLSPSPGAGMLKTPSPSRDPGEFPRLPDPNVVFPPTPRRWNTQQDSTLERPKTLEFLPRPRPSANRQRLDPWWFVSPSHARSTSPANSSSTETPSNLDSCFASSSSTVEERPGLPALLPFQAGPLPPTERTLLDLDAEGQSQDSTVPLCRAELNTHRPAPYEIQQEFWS
Description: as §1

Compound | residual kinase activity ([1]; 0.03 µM) | residual kinase activity ([1]; 0.3 µM) | residual kinase activity ([2]; 0.03 µM) | residual kinase activity ([2]; 0.3 µM) | residual kinase activity ([3]; 0.03 µM) | residual kinase activity ([3]; 0.3 µM) | residual kinase activity ([4]; 0.03 µM) | residual kinase activity ([4]; 0.3 µM) | residual kinase activity ([1]; 3 µM) | residual kinase activity ([2]; 3 µM) | residual kinase activity ([3]; 3 µM) | residual kinase activity ([4]; 3 µM)
COc1ccnc2[nH]cc(-c3cc(N)nc(N)c3)c12 [meriolin 16] | 106 % of control | 90 % of control | 97 % of control | 85 % of control | 102 % of control | 98 % of control | 95 % of control | 80 % of control | – | – | – | –
c1ccc(CNc2cc(-c3c[nH]c4ncccc34)ccn2)cc1 [meriolin 36] | – | 66 % of control | – | 50 % of control | – | 60 % of control | – | 57 % of control | 26 % of control | 15 % of control | 19 % of control | 12 % of control
